Test results: ChEMBL document CHEMBL1148380, “Quantitative structure-activity relationships for gammadelta T cell activation by bisphosphonates” (J Med Chem, 2004)

What was measured:
Type in all cases: functional, cell-based
Conditions in all cases: Homo sapiens, T-cell
[1] = pIC50 value for stimulation of TNF-alpha release in gamma-delta T cells, using a constrained maximum TNF-alpha release of 2700 pg/mL
[2] = Inhibitory activity, for stimulation of TNF-alpha release in gamma-delta T cells, using a constrained maximum TNF-alpha release of 2700 pg/mL
[3] = pIC50 value for stimulation of TNF-alpha release in gamma-delta T cells, using individual observed maximum TNF-alpha release
[4] = Inhibitory activity, for stimulation of TNF-alpha release in gamma-delta T cells, using individual observed maximum TNF-alpha release

Row | IC50 [1] [µM] | IC50 [2] [µM] | IC50 [3] [µM] | IC50 [4] [µM] | SMILES
1 | 398 | 400 | – | – | CN(C)CCCC(P(=O)(O)O)P(=O)(O)O
2 | 63.1 | 63 | – | – | O=P(O)(O)C(NCc1ccc(F)cc1)P(=O)(O)O
3 | 67.6 | 67 | – | – | O=P(O)(O)C(Sc1ccccn1)P(=O)(O)O
4 | 1200 | 1200 | – | – | CCC1CCCCN1C(P(=O)(O)O)P(=O)(O)O (stereo not given)
5 | 110 | 110 | – | – | O=[N+]([O-])c1cccc(CC(O)(P(=O)(O)O)P(=O)(O)O)c1
6 | 23.4 | 24 | – | – | CC1CCN(C(P(=O)(O)O)P(=O)(O)O)CC1
7 | 72.4 | 72 | – | – | Cc1cc(Br)cnc1NC(P(=O)(O)O)P(=O)(O)O
8 | 16.2 | 16 | 10 | 9.9 | CC(CCCCc1ccccc1)CCC(O)(P(=O)(O)O)P(=O)(O)O (stereo not given)
9 | 1660 | 1650 | – | – | CC1CCCC(C)N1C(P(=O)(O)O)P(=O)(O)O (stereo not given)
10 | 8910 | 9020 | – | – | Cc1cccc(CC(O)(P(=O)(O)O)P(=O)(O)O)c1
11 | 347 | 348 | – | – | CC1CCCN(C(P(=O)(O)O)P(=O)(O)O)C1 (stereo not given)
12 | 15.5 | 16 | 7.41 | 7.4 | O=P(O)(O)C(Nc1ccccn1)P(=O)(O)O
13 | 912 | 917 | 229 | 228 | O=P(O)(O)C(O)(CCc1cccnc1)P(=O)(O)O
14 | 16.2 | 16 | 10 | 9.9 | O=P(O)(O)C(CNc1ccncc1)P(=O)(O)O
15 | 14.5 | 14 | 4.9 | 4.8 | O=P(O)(O)C(CNc1ccccn1)P(=O)(O)O
16 | 214 | 213 | 102 | 102 | NCCCCC(O)(P(=O)(O)O)P(=O)(O)O
17 | 1620 | 1610 | 91.2 | 90 | CCCCCC(O)(P(=O)(O)O)P(=O)(O)O
18 | 24 | 24 | 14.5 | 14 | O=P(O)(O)C(Nc1cccnc1)P(=O)(O)O
19 | 22.9 | 23 | 19.5 | 19 | CN(CCc1ccccc1)CCC(O)(P(=O)(O)O)P(=O)(O)O

Row | IC50 [1] [µM] | IC50 [2] [µM] | IC50 [3] [µM] | IC50 [4] [µM] | SMILES
20 | 12 | 12 | 7.76 | 7.8 | O=P(O)(O)C(O)(Cc1c[nH]cn1)P(=O)(O)O
21 | 141 | 143 | 97.7 | 98 | O=P(O)(O)C(O)(CCNCCCOc1ccccc1)P(=O)(O)O
22 | 25100 | 25200 | – | – | CC(C)(C)c1cccc(NC(P(=O)(O)O)P(=O)(O)O)c1
23 | 2090 | 2070 | – | – | O=P(O)(O)C(O)(Cn1ccnn1)P(=O)(O)O
24 | 2750 | 2740 | – | – | CC1CCCCN1C(P(=O)(O)O)P(=O)(O)O (stereo not given)
25 | – | – | 5.25 | 5.2 | O=P(O)(O)C(O)(C[n+]1cc[nH]c1)P(=O)(O)O
26 | 102 | 103 | – | – | CCN(C1CCCCC1)C(P(=O)(O)O)P(=O)(O)O
27 | 20000 | 19900 | 251 | 251 | Nc1ccc(CC(O)(P(=O)(O)O)P(=O)(O)O)cc1
28 | 5.62 | 5.6 | 5.75 | 5.7 | O=P(O)(O)C(O)(Cc1ccccn1)P(=O)(O)O
29 | 120 | 122 | 66.1 | 66 | O=P(O)(O)C(N1CCCCC1)P(=O)(O)O
30 | 120 | 121 | 63.1 | 63 | CN(CCCc1ccccc1)CCC(O)(P(=O)(O)O)P(=O)(O)O
31 | 4.9 | 4.9 | 4.37 | 4.3 | Cc1cccnc1NC(P(=O)(O)O)P(=O)(O)O
32 | 2090 | 2110 | 214 | 213 | CCCCCCC(O)(P(=O)(O)O)P(=O)(O)O
33 | 14.5 | 14 | 12.6 | 13 | Cc1ccnc(NC(P(=O)(O)O)P(=O)(O)O)c1
34 | 20.9 | 21 | 21.4 | 22 | O=P(O)(O)C(O)(Cc1ccncc1)P(=O)(O)O
35 | 28.2 | 28 | 12 | 12 | Cc1cccc(NC(P(=O)(O)O)P(=O)(O)O)n1
36 | 19.5 | 19 | 8.91 | 9 | CCC(C)CNC(P(=O)(O)O)P(=O)(O)O (stereo not given)
37 | 2820 | 2820 | 398 | 395 | O=P(O)(O)C(O)(Cc1ccccc1)P(=O)(O)O
38 | 10.5 | 10 | – | – | O=P(O)(O)C(Cc1cccnc1)P(=O)(O)O

Row | IC50 [1] [µM] | IC50 [2] [µM] | IC50 [3] [µM] | IC50 [4] [µM] | SMILES
39 | 46.8 | 47 | 39.8 | 40 | O=P(O)(O)C(NC1CCCCC1)P(=O)(O)O [(CYCLOHEXYLAMINO)METHYLENEDIPHOSPHONIC ACID]
40 | 110 | 110 | 43.7 | 44 | O=P(O)(O)C(NC1CCCCCCC1)P(=O)(O)O [(CYCLOOCTYLAMINO)METHYLENEDIPHOSPHONIC ACID]
41 | 55 | 55 | 25.1 | 25 | O=P(O)(O)C(NC1CCCC1)P(=O)(O)O [(CYCLOPENTYLAMINO)METHYLENEDIPHOSPHONIC ACID]
42 | 83.2 | 83 | 40.7 | 41 | CCCN(CCC)C(P(=O)(O)O)P(=O)(O)O [(DIPROPYLAMINO)METHYLENEDIPHOSPHONIC ACID]
43 | 46.8 | 47 | 39.8 | 40 | CC(C)CCNC(P(=O)(O)O)P(=O)(O)O [(ISOPENTYLAMINO)METHYLENEDIPHOSPHONIC ACID]
44 | 170 | 169 | 66.1 | 66 | CCCCCCCCCNC(P(=O)(O)O)P(=O)(O)O [(NONYLAMINO)METHYLENEDIPHOSPHONIC ACID]
45 | 40.7 | 41 | 7.76 | 7.8 | CCCCCNC(P(=O)(O)O)P(=O)(O)O [(PENTYLAMINO)METHYLENEDIPHOSPHONIC ACID]
46 | 52.5 | 52 | 53.7 | 53 | NCCCC(O)(P(=O)(O)O)P(=O)(O)O [ALENDRONIC ACID]
47 | 30.9 | 31 | 31.6 | 31 | CCCCCN(C)CCC(O)(P(=O)(O)O)P(=O)(O)O [IBANDRONIC ACID]
48 | 14.8 | 15 | 11.5 | 11 | O=P(O)(O)C(NC1CCCCCC1)P(=O)(O)O [INCADRONIC ACID]
49 | 7.94 | 8 | 4.07 | 4.1 | O=P(O)(O)C(O)(Cc1cnc2ccccn12)P(=O)(O)O [MINODRONIC ACID]
50 | 67.6 | 68 | – | – | O=P(O)(O)C(N1CCCCCCC1)P(=O)(O)O [N-(HEPTAMETHYLENEIMINO)METHYLENEBISPHOSPHONIC ACID]
51 | 12.9 | 13 | 11.2 | 11 | O=P(O)(O)C(N1CCCCCC1)P(=O)(O)O [N-(HEXAMETHYLENEIMINO)METHYLENEBISPHOSPHONIC ACID]
52 | 501 | 503 | 195 | 1.96 | NCCCCCC(O)(P(=O)(O)O)P(=O)(O)O [NERIDRONIC ACID]
53 | 112 | 112 | 46.8 | 46 | CN(C)CCC(O)(P(=O)(O)O)P(=O)(O)O [OLPADRONIC ACID]
54 | 933 | 941 | 61.7 | 62 | NCCC(O)(P(=O)(O)O)P(=O)(O)O [PAMIDRONIC ACID]
55 | 6.17 | 6.2 | 6.92 | 6.9 | O=P(O)(O)C(O)(Cc1cccnc1)P(=O)(O)O [RISEDRONIC ACID]
56 | 603 | 597 | 191 | 190 | O=P(O)(O)C(N1CCSCC1)P(=O)(O)O [THIOMORPHOLINOMETHYLENEDIPHOSPHONIC ACID]

Row | SMILES | IC50 [1] [µM] | IC50 [2] [µM] | IC50 [3] [µM] | IC50 [4] [µM]
57 | CC(N)CC(O)(P(=O)(O)O)P(=O)(O)O (stereo not given) | 110 | 110 | 63.1 | 63
58 | CCCCNC(P(=O)(O)O)P(=O)(O)O [(BUTYLAMINO)METHYLENEDIPHOSPHONIC ACID] | 12.9 | 13 | 10.2 | 10
59 | O=P(O)(O)C(NC1CCC1)P(=O)(O)O [(CYCLOBUTYLAMINO)METHYLENEDIPHOSPHONIC ACID] | 126 | 127 | 56.2 | 56
60 | CCN(CC)C(P(=O)(O)O)P(=O)(O)O [(DIETHYLAMINO)METHYLENEDIPHOSPHONIC ACID] | 2880 | 2910 | 132 | 132
61 | CCCNC(P(=O)(O)O)P(=O)(O)O [(PROPYLAMINO)METHYLENEDIPHOSPHONIC ACID] | 34.7 | 35 | 18.2 | 18
